Among the test systems are NCI-H522 lung; SR leukemia; SK-OV-3 ovarian; SF-295 CNS; SF-268 CNS; MALME-3M melanoma; SW-620 colon; IGROV1 ovarian; SN12C renal; PC-3 prostate.
Holding throughout (experiment): DTP human tumour cell line panel, 48 h

Several values for one entry are separate records, joined by “and”; a condition that tells them apart may be missing. Equal entries are not always repeated.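 Growth conditions: 96-well plates. Treatment: test compound, 48 hours, 5 concentrations. Analysis: linear interpolation between bracketing concentrations; unreached endpoints set to highest concentration. GI50 is the concentration that inhibits growth by half. TGI marks complete inhibition of growth.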 Numbered stars: 1 amine (or outer) side, 2 acyl side, 3 side chain; on linkers, the order of the positions; unused ones are H or OH. Bridge positions count the residues as written; N and C are the ends. Square brackets hold non-standard residues; d marks the D form. Peptide text beside a SMILES is read from it. I, II: the chains in the order shown. Actinocin(1to9) = Cc1c2oc3c(C)ccc(C(=O)[*:2])c3nc-2c(C(=O)[*:1])c(N)c1=O; NMeY = CN[CH](Cc1ccc(O)cc1)C(=O)O; Sar = CNCC(=O)O

A word on the TGI: it is the concentration giving total growth inhibition. High values mean lower sensitivity of the cells, low ones greater sensitivity of the cells. The term GI50 denotes the concentration giving 50% growth inhibition.

In the case of `COc1ccc2c(c1)CN1CCc3c(cc(OC)c(OC)c3OC)C1C2` (centres undefined), the TGI in the experiment with NCI-H522 lung, in the experiment on SR leukemia, in the experiment with SK-OV-3 ovarian, in the experiment with SF-295 CNS, in the experiment on SF-268 CNS and in the experiment on MALME-3M melanoma was above 100 µM throughout. For the same compound, the TGI in the experiment on SW-620 colon, in the experiment with IGROV1 ovarian and with SN12C renal was above 100 µM in each case.
With `C[C@H]1C=C2C(=O)O[C@H]3CC[C@@H](C1)[C@@]23O`, the total growth inhibition concentration (TGI) was 8.15 µM with NCI-H522 lung; above 100 µM in the experiment with SR leukemia; 22.4 µM with SK-OV-3 ovarian; 16.4 µM in the experiment on SF-295 CNS; 15.2 µM with SF-268 CNS; 20 µM in the experiment on MALME-3M melanoma. For the same compound, the TGI in the experiment on SW-620 colon was determined as 10.3 µM; with IGROV1 ovarian, 19 µM; in the experiment with SN12C renal, 6.76 µM.
Take `CC(=O)Oc1ccc2c(c1)C(=O)c1nc(C)c(C)nc1C2=O`: the concentration for total growth inhibition (TGI) with NCI-H522 lung is 89.6 µM; with SR leukemia, above 89 µM; with SK-OV-3 ovarian, above 100 µM; in the experiment on SF-295 CNS it was above 100 µM; with SF-268 CNS it was above 100 µM; in the experiment with MALME-3M melanoma it was 38 µM. For the same compound, the TGI in the experiment on SW-620 colon, in the experiment with IGROV1 ovarian and in the experiment with SN12C renal was above 100 µM in each case.
Consider `C=C1C(OC(C)=O)CC(OC(C)=O)C2(C)C(OC(C)=O)C(OC(C)=O)C3=C(C)C(OC(=O)/C=C/c4ccccc4)CC(C(OC(C)=O)C12)C3(C)C` (centres undefined), for which the TGI with NCI-H522 lung, with SR leukemia, with SK-OV-3 ovarian, in the experiment with SF-295 CNS, in the experiment with SF-268 CNS and in the experiment on MALME-3M melanoma was above 100 µM each time. For the same compound, the total growth inhibition concentration (TGI) in the experiment on SW-620 colon, in the experiment with IGROV1 ovarian and in the experiment on SN12C renal was above 100 µM each time.
As to `COc1c(N2CCN(CN3C(=O)C(=Nc4ccc(S(=O)(=O)Nc5ncccn5)cc4)c4cc(Cl)ccc43)C(C)C2)c(F)cc2c(=O)c(C(=O)O)cn(C3CC3)c12` (centres undefined), the GI50 in the experiment on NCI-H522 lung is above 50 µM; with SR leukemia it was 12.4 µM; in the experiment on SK-OV-3 ovarian, 40 µM; in the experiment on SF-295 CNS, 24.5 µM; in the experiment with PC-3 prostate, 15 µM; in the experiment with SF-268 CNS, 12.1 µM. For the same compound, the GI50 in the experiment with SW-620 colon was 10.7 µM; with IGROV1 ovarian, 15.8 µM; in the experiment with SN12C renal it was 10.6 µM. Also, the TGI with NCI-H522 lung, in the experiment with SR leukemia, with SK-OV-3 ovarian, in the experiment on SF-295 CNS, with PC-3 prostate and in the experiment on SF-268 CNS was above 50 µM in each case. Also, the TGI with SW-620 colon is 44.7 µM; with IGROV1 ovarian it was above 50 µM; in the experiment on SN12C renal it was 27.5 µM.
For the compound `CNC(=O)CN(CC(=O)O)C(=O)NC`, the TGI in the experiment on NCI-H522 lung, with SR leukemia, in the experiment on SK-OV-3 ovarian, in the experiment with SF-295 CNS, in the experiment on SF-268 CNS and in the experiment on MALME-3M melanoma was above 100 µM throughout. The TGI with SW-620 colon and in the experiment with IGROV1 ovarian was above 100 µM throughout.
In the case of `C=C1C[C@@H]2C[C@@H](C)CC(O)[C@]2(CCCN)C1O` (some centres undefined), the concentration for total growth inhibition (TGI) in the experiment on NCI-H522 lung, with SR leukemia, with SK-OV-3 ovarian, in the experiment with SF-295 CNS, with SF-268 CNS and with MALME-3M melanoma was above 100 µM each time. Also, the TGI with SW-620 colon, with IGROV1 ovarian and in the experiment on SN12C renal was above 100 µM throughout.
On to `COc1cc2cnc3c4cc(OCc5ccccc5)ccc4ccc3c2cc1OC`, for which the total growth inhibition concentration (TGI) with NCI-H522 lung is above 100 µM; in the experiment on SR leukemia, 27.1 µM; with SK-OV-3 ovarian, 56.8 µM; in the experiment with SF-295 CNS, 82.9 µM; in the experiment on SF-268 CNS, above 100 µM; in the experiment on MALME-3M melanoma, above 100 µM. Further, the TGI in the experiment with SW-620 colon, with IGROV1 ovarian and in the experiment with SN12C renal was above 100 µM each time.
Consider `c1cncc(CSc2nc3ccccc3nc2-c2cccs2)c1`, for which the TGI in the experiment on NCI-H522 lung, in the experiment with SR leukemia, with SF-295 CNS, in the experiment on SF-268 CNS, with MALME-3M melanoma and in the experiment with SW-620 colon was above 100 µM each time. The compound further registered a TGI with SN12C renal above 100 µM.
With `CO[C@@]1(c2ccccc2)O[C@H]2OCCC2[C@H]1c1ccc(Cl)cc1` (some centres undefined), the TGI in the experiment with NCI-H522 lung was 67.9 µM; in the experiment on SR leukemia, above 100 µM; in the experiment with SF-295 CNS, 59.7 µM; with SF-268 CNS, above 100 µM; in the experiment on MALME-3M melanoma, 84.8 µM; in the experiment with SW-620 colon, above 100 µM. The TGI in the experiment on IGROV1 ovarian and in the experiment on SN12C renal was above 100 µM each time.
Consider `O/N=C/c1ccc(O)c(O)c1`, for which the TGI in the experiment on NCI-H522 lung, with SR leukemia, with SK-OV-3 ovarian, in the experiment on SF-295 CNS, with SF-268 CNS and in the experiment on MALME-3M melanoma was above 100 µM throughout. Also, the values for the TGI in the experiment on SW-620 colon, in the experiment on IGROV1 ovarian and with SN12C renal were 35.3 µM, above 100 µM and above 100 µM, respectively.
Turning to `COc1cc(/C=N/N=C(\N)NO)c([N+](=O)[O-])cc1OC`, the total growth inhibition concentration (TGI) was 34.4 µM in the experiment with NCI-H522 lung; above 100 µM with SR leukemia; above 100 µM in the experiment with SK-OV-3 ovarian; above 100 µM in the experiment with SF-295 CNS; 99.2 µM with SF-268 CNS; above 100 µM in the experiment on MALME-3M melanoma. Also, the TGI in the experiment on SW-620 colon, with IGROV1 ovarian and in the experiment with SN12C renal was above 100 µM throughout.
With `COc1ccc2c(c1)CCc1c-2n[nH]c1-c1[nH]nc2c1CCc1cc(OC)ccc1-2`, the TGI in the experiment with NCI-H522 lung is 67.4 µM; in the experiment with SR leukemia, above 100 µM; with SK-OV-3 ovarian, above 100 µM; in the experiment with SF-295 CNS it was 39.5 µM; in the experiment on SF-268 CNS, above 100 µM; in the experiment with MALME-3M melanoma, above 100 µM. Besides, the TGI with SW-620 colon, in the experiment on IGROV1 ovarian and with SN12C renal was above 100 µM in each case.
In the case of `COC(C)C(O)(C(=O)OCC1=CCN2CCC(O)C12)C(C)(C)O` (centres undefined), the TGI in the experiment on NCI-H522 lung, with SK-OV-3 ovarian, in the experiment with SF-295 CNS, with PC-3 prostate, in the experiment with SF-268 CNS and with MALME-3M melanoma was above 100 µM throughout. For the same compound, the TGI with SW-620 colon, with IGROV1 ovarian and with SN12C renal was above 100 µM throughout.
`CCC(CO)Nc1nc2c(c(=O)n(C)c(=O)n2C)n1CCO` (centres undefined): the TGI with SR leukemia, with SK-OV-3 ovarian, in the experiment on SF-295 CNS, in the experiment on SF-268 CNS, in the experiment with MALME-3M melanoma and in the experiment on SW-620 colon was above 100 µM throughout. Also, the TGI with IGROV1 ovarian and with SN12C renal was above 100 µM in each case.
For the compound `CCCCN(CCCC)CC(C(C)=O)C(c1ccccc1)c1c(O)c2ccccc2oc1=O` (centres undefined), the TGI with NCI-H522 lung, with SR leukemia, with SK-OV-3 ovarian, with SF-295 CNS, with SF-268 CNS and in the experiment on MALME-3M melanoma was above 100 µM in each case. Further, the TGI in the experiment with SW-620 colon, with IGROV1 ovarian and in the experiment with SN12C renal was above 100 µM each time.
On to `COC(=O)CC[C@]12C[C@]13CC[C@]1(C)C4C(C)C[C@]5(CC(C)C(=O)O5)OC4CC1(C)C3CCC2C(C)(C)O` (some centres undefined), for which the TGI in the experiment with NCI-H522 lung, with SR leukemia, with SK-OV-3 ovarian, in the experiment with SF-295 CNS, in the experiment with SF-268 CNS and in the experiment with MALME-3M melanoma was above 100 µM each time. Besides, the TGI with SW-620 colon, in the experiment on IGROV1 ovarian and with SN12C renal was above 100 µM in each case.
For `COc1ccc(CC2C(=O)OC(C)C(NC(=O)c3c4nc5c(C(=O)NC6C(=O)NC(C(C)C)C(=O)N7CCCC7C(=O)N(C)CC(=O)N(C)C(Cc7ccc(OC)cc7)C(=O)OC6C)ccc(C)c5oc-4c(C)c(=O)c3N)C(=O)NC(C(C)C)C(=O)N3CCCC3C(=O)N(C)CC(=O)N2C)cc1` (centres undefined) (I: TVP[Sar][NMeY](Me) / II: TVP[Sar][NMeY](Me); ester I:1-I:C, II:1-II:C; linker I:N-II:N via Actinocin(1to9); configuration not given here), the GI50 in the experiment on NCI-H522 lung is 0.00264 µM; with SR leukemia, 0.000646 µM; in the experiment on SK-OV-3 ovarian, < 0.01 µM and 0.0582 µM; in the experiment on SF-268 CNS, < 0.01 µM and 0.00484 µM; in the experiment with IGROV1 ovarian, < 0.01 µM and 0.00327 µM. Also, the TGI in the experiment with NCI-H522 lung is 0.018 µM; in the experiment on SR leukemia, above 0.374 µM; with SF-295 CNS, 0.28 µM; in the experiment with SN12C renal, above 1 µM.
With `C=C(C)[C@@H]1CC[C@]2(C(=O)NS(=O)(=O)c3ccccc3)CC[C@]3(C)[C@H](CC[C@@H]4[C@@]5(C)CC[C@H](OC(=O)NS(=O)(=O)c6ccccc6)C(C)(C)[C@@H]5CC[C@]43C)[C@@H]12`, the GI50 in the experiment on NCI-H522 lung was 2.48 µM; in the experiment with SK-OV-3 ovarian, 2.6 µM; in the experiment with SF-295 CNS it was 0.281 µM; in the experiment with PC-3 prostate, 2.11 µM; in the experiment with SF-268 CNS it was 3.03 µM; in the experiment with MALME-3M melanoma, 2.09 µM. Moreover, the GI50 in the experiment on SW-620 colon was 3.27 µM; in the experiment on IGROV1 ovarian, 2.46 µM; with SN12C renal it was 2.34 µM. Moreover, the TGI in the experiment with NCI-H522 lung is 9.19 µM; in the experiment on SK-OV-3 ovarian, 8.22 µM; in the experiment with SF-295 CNS, 2.23 µM; in the experiment with PC-3 prostate it was 20.6 µM; in the experiment with SF-268 CNS it was 32.1 µM; in the experiment on MALME-3M melanoma it was 5.32 µM. Further, the TGI was 15.2 µM in the experiment on SW-620 colon, 5.56 µM with IGROV1 ovarian and 15.7 µM in the experiment with SN12C renal.

The values above are taken from PubChem BioAssay (NCI).
